# Test results: patent US20020098248A1, “Method for treating and/or preventing infections caused by methicillin-resistant Staphylococcus aureus” (priority 2000, published 2002)
# Tested on: Staphylococcus, particularly MRSA
# Assay: Examination of catechin for antimicrobial effect
# Type: cell-based
# Settings: catechin only, even if it has a high concentration
substance,measurement,value
catechin,"antimicrobial effect against Staphylococcus, particularly MRSA",does not provide a desired antimicrobial effect
